This experiment relates to spontaneously hypertensive rates (SHR rats). Kind of experiment: Measurement of change in blood pressure (systolic, indirect, conscious rats) after one oral dose. In kind it is in vivo, rat. Conditions: for Δ Blood Pressure (systolic): lowest value minus value before administration; for Systolic Blood Pressure, Lowest Value: after administration. Here is the method:
The antihypertensive activities of the amino acid derivatives as prepared above were determined.
As subject animals, there were used 5 spontaneously hypertensive rates (SHR rats) which had been sufficiently trained and confirmed to be hypertensive (mode, the body weight of 400 g) per a sample.
As an instrument for measuring the blood pressure there was used Programmed Electro-Sphygmomanometer PE-300 (Narco Co., U.S.A.), and the blood pressure was indirectly measured on conscious rats.
An aqueous solution of a sample (0.05 m mole/kg) was once force-fed into the stomach by means of a […] probe. As a control, the water as deionized was fed to the same animals as above.

Setting [1] is: SHR rats, single force-feeding into the stomach, 0.05 m mole/kg.
Where [2] appears, read: SHR rats, 5 per sample, before single force-feeding into the stomach of 0.05 m mole/kg aqueous solution.
The mark [3] stands for this setting: second table (Examples 25-43), before administration.

Square brackets hold non-standard residues; d marks the D form. Peptide text beside a SMILES is read from it. * marks the point of attachment. pGlu = O=C1CC[C@@H](C(=O)O)N1; Cbz = O=C(OCc1ccccc1)*; PhAc = O=C(Cc1ccccc1)*; Boc = CC(C)(C)OC(=O)*; Propionyl = CCC(=O)*; Bz = O=C(c1ccccc1)*

Consider `CCOC(=O)N[C@@H](C)C(=O)N1CCC[C@H]1C(=O)N1CCC[C@H]1C(=O)O` [Example 1, N-ethoxycarbonyl-L-alanyl-L-prolyl-L-proline], for which, under setting [1], the “Systolic Blood Pressure, Lowest value after administration” value is listed as 155 mm Hg and the “Δ Blood Pressure (systolic)” value is reported as -38 mm Hg.
The corresponding values for `CC(=O)N[C@@H](C)C(=O)N1CCC[C@H]1C(=O)N1CCC[C@H]1C(=O)O` [Example 3, N-acetyl-L-alanyl-L-prolyl-L-proline] (Ac-Ala-Pro-Pro-OH) are 160 mm Hg and -41 mm Hg.
The corresponding values for `CCC(=O)N[C@@H](C)C(=O)N1CCC[C@H]1C(=O)N1CCC[C@H]1C(=O)O` [Example 4, N-propionyl-L-alanyl-L-prolyl-L-proline] (Propionyl-Ala-Pro-Pro-OH) are 173 mm Hg and -24 mm Hg.
Take `C[C@H](NC(=O)c1ccccn1)C(=O)N1CCC[C@H]1C(=O)N1CCC[C@H]1C(=O)O` [Example 5, N-picolinoyl-L-alanyl-L-prolyl-L-proline]: under setting [1], the “Systolic Blood Pressure, Lowest value after administration” value turned out to be 175 mm Hg and the “Δ Blood Pressure (systolic)” value was -22 mm Hg.
With `C[C@H](NC(=O)c1cccs1)C(=O)N1CCC[C@H]1C(=O)N1CCC[C@H]1C(=O)O` [Example 6, N-(2-thenoyl)-L-alanyl-L-prolyl-L-proline], under setting [1], the “Systolic Blood Pressure, Lowest value after administration” value was 182 mm Hg and the “Δ Blood Pressure (systolic)” value is on record as -20 mm Hg.
Turning to `C[C@H](NC(=O)c1ccco1)C(=O)N1CCC[C@H]1C(=O)N1CCC[C@H]1C(=O)O` [Example 7, N-(2-furoyl)-L-alanyl-L-prolyl-L-proline], under setting [1], the “Systolic Blood Pressure, Lowest value after administration” value is given as 177 mm Hg and the “Δ Blood Pressure (systolic)” value was -28 mm Hg.
For the compound `C[C@@H](C(=O)N1CCC[C@H]1C(=O)N1CCC[C@H]1C(=O)O)N1C(=O)c2ccccc2C1=O` [Example 8, N-phthaloyl-L-alanyl-L prolyl-L-proline], the “Systolic Blood Pressure, Value Before Administration” value under setting [2] was determined as 225 mm Hg. Further, under setting [1], the “Hours after administration (of lowest systolic blood pressure value)” value was 4 h; the “Systolic Blood Pressure, Lowest value after administration” value was found to be 207 mm Hg; the “Δ Blood Pressure (systolic)” value was -18 mm Hg.
The corresponding values for `CCS(=O)(=O)N[C@@H](C)C(=O)N1CCC[C@H]1C(=O)N1CCC[C@H]1C(=O)O` [Example 12, N-ethanesulfonyl-L-alanyl-L prolyl-L-proline] are 204 mm Hg, 24 h, 159 mm Hg and -45 mm Hg.
As for `C[C@H](NC(=O)c1ccccc1)C(=O)N1CCC[C@H]1C(=O)N1CCC[C@H]1C(=O)O` [Example 13, N-benzoyl-L-alanyl-L-prolyl-L-proline] (Bz-Ala-Pro-Pro-OH), under setting [1], the “Systolic Blood Pressure, Lowest value after administration” value is recorded as 177 mm Hg and the “Δ Blood Pressure (systolic)” value is -43 mm Hg.
The corresponding values for `C[C@H](NC(=O)Cc1ccccc1)C(=O)N1CCC[C@H]1C(=O)N1CCC[C@H]1C(=O)O` [Example 14, N-phenylacetyl-L-alanyl-L-prolyl-L-proline] (PhAc-Ala-Pro-Pro-OH) are 175 mm Hg and -24 mm Hg.
`C[C@H](NC(=O)OCc1ccccc1)C(=O)N1CCC[C@H]1C(=O)N1CCC[C@H]1C(=O)O.NC(N)=NCCC[C@H](N)C(=O)O` [Example 15, N-benzyloxycarbonyl-L-alanly-L-prolyl-L-proline L-arginine salt] (Cbz-Ala-Pro-Pro-OH): under setting [2], the “Systolic Blood Pressure, Value Before Administration” value amounted to 205 mm Hg. Further, under setting [1], the “Hours after administration (of lowest systolic blood pressure value)” value is 4 h; the “Systolic Blood Pressure, Lowest value after administration” value was determined as 172 mm Hg; the “Δ Blood Pressure (systolic)” value is given as -33 mm Hg.
For the compound `C[C@H](NC(=O)OC(C)(C)C)C(=O)N1CCC[C@H]1C(=O)N1CCC[C@H]1C(=O)O` [Example 16, N-t-butyloxycarbonyl-L-alanyl-L-prolyl-L-proline] (Boc-Ala-Pro-Pro-OH), under setting [1], the “Systolic Blood Pressure, Lowest value after administration” value stood at 173 mm Hg and the “Δ Blood Pressure (systolic)” value was -21 mm Hg.
The corresponding values for `C[C@H](NC(=O)[C@@H]1CCC(=O)N1)C(=O)N1CCC[C@H]1C(=O)N1CCC[C@H]1C(=O)O` [Example 21, L-pyroglutamyl-L-alanyl-L-prolyl-L-proline] ([pGlu]APP-OH) are 190 mm Hg and -29 mm Hg.
Turning to `CC[C@H](C)[C@H](NC(=O)c1ccccc1)C(=O)N1CCC[C@H]1C(=O)N1CCC[C@H]1C(=O)O` [Example 25, N--benzoyl-L-isoleucyl-L-prolyl-L-proline] (Bz-Ile-Pro-Pro-OH), for the setting “second table (Examples 25-43)”, the “Hrs. After Admin. (of lowest systolic blood pressure value)” value came to 8 h; the “Systolic Blood Pressure, Lowest Value” is 201; the “Δ Blood Pressure (systolic)” value is given as -28. Also, the “Systolic Blood Pressure, Value Before Administration” value under setting [3] was 229.
On the same counts, the results for `O=C(N[C@@H](Cc1ccccc1)C(=O)N1CCC[C@H]1C(=O)N1CCC[C@H]1C(=O)O)c1ccccc1.[Na]` [Example 26, N--Benzoyl-L-phenylalanyl-L-prolyl-L-proline sodium salt] (Bz-Phe-Pro-Pro-OH) are 8 h, 194, -34 and 228.
On the same counts, the results for `O=C(NCC(=O)N1CCC[C@H]1C(=O)N1CCC[C@H]1C(=O)O)c1ccccc1` [Example 27, N--benzoyl-glycyl-L-prolyl-L-proline] (Bz-Gly-Pro-Pro-OH) are 8 h, 209, -23 and 232.
The corresponding values for `O=C(O)CC[C@H](NC(=O)c1ccccc1)C(=O)N1CCC[C@H]1C(=O)N1CCC[C@H]1C(=O)O` [Example 28, N--benzoyl-L-glutamyl-L-prolyl-L-proline] (Bz-Glu-Pro-Pro-OH) are 8 h, 196, -39 and 235.
With `O=C(O)[C@@H]1CCCN1C(=O)[C@@H]1CCCN1C(=O)[C@H](CO)NCc1ccccc1` [Example 29, N--benzyl-L-seryl-L-prolyl-L-proline], for the setting “second table (Examples 25-43)”, the “Hrs. After Admin. (of lowest systolic blood pressure value)” value worked out at 8 h; the “Systolic Blood Pressure, Lowest Value” is 192; the “Δ Blood Pressure (systolic)” value is reported as -22. Besides, the “Systolic Blood Pressure, Value Before Administration” value under setting [3] is on record as 214.
For `CCOC(=O)N[C@H](C(=O)N1CCC[C@H]1C(=O)N1CCC[C@H]1C(=O)O)[C@@H](C)CC.[Na]` [Example 30, N--ethoxycarbonyl-L-isoleucyl-L-prolyl-L-proline sodium salt], for the setting “second table (Examples 25-43)”, the “Hrs. After Admin. (of lowest systolic blood pressure value)” value came out at 4 h; the “Systolic Blood Pressure, Lowest Value” came to 208; the “Δ Blood Pressure (systolic)” value is -16. Moreover, the “Systolic Blood Pressure, Value Before Administration” value under setting [3] worked out at 224.
The corresponding values for `CCOC(=O)N[C@@H](Cc1ccccc1)C(=O)N1CCC[C@H]1C(=O)N1CCC[C@H]1C(=O)O.[Na]` [Example 31, N--ethoxycarbonyl-L-phenylalanyl-L-prolyl-L-proline sodium salt] are 24 h, 199, -17 and 216.
On the same counts, the results for `CCOC(=O)NCC(=O)N1CCC[C@H]1C(=O)N1CCC[C@H]1C(=O)O.[Na]` [Example 32, N--ethoxycarbonyl-glycyl-L-prolyl-L-proline sodium salt] are 8 h, 193, -22 and 215.
On the same counts, the results for `CCOC(=O)N[C@@H](CCC(=O)O)C(=O)N1CCC[C@H]1C(=O)O` [Example 33, N--ethoxycarbonyl-L-glutamyl-L-proline] are 8 h, 202, -18 and 220.
As to `CCOC(=O)N[C@@H](CCCNC(=N)N)C(=O)N1CCC[C@H]1C(=O)N1CCC[C@H]1C(=O)O` [Example 34, N--ethoxycarbonyl-L-arginyl-L-prolyl-L-proline], for the setting “second table (Examples 25-43)”, the “Hrs. After Admin. (of lowest systolic blood pressure value)” value stood at 4 h; the “Systolic Blood Pressure, Lowest Value” stood at 192; the “Δ Blood Pressure (systolic)” value is listed as -11. The “Systolic Blood Pressure, Value Before Administration” value under setting [3] amounted to 203.
For `CCOC(=O)N[C@@H](CO)C(=O)N1CCC[C@H]1C(=O)N1CCC[C@H]1C(=O)O` [Example 35, N--Ethoxycarbonyl-L-seryl-L-prolyl-L-proline], where the note is “second table (Examples 25-43)”, the “Hrs. After Admin. (of lowest systolic blood pressure value)” value amounted to 8 h; the “Systolic Blood Pressure, Lowest Value” was determined as 195; the “Δ Blood Pressure (systolic)” value is reported as -25. Moreover, the “Systolic Blood Pressure, Value Before Administration” value under setting [3] was determined as 220.
